Where two headings read alike, the source gives them in different places.
Key:
NCM-460 cell line = experiment: cells; conditions: for concentration affecting cell viability: NCM-460, after 24 h
Method: (§1) Briefly, cells were firstly seeded, in triplicate, into 96-well culture plates at 10^4 cells/well. […] Ethanol 99.5% was used to solubilize essential oils. The final concentration of ethanol in the cell medium was kept lower than 0.1%. Ethanol 0.1% was added to the control (untreated) cells.
(§2) The cytotoxicity of the essential oil single components was evaluated by MTT assay on 96-well plates. After 24, 48 and 72 h, MTT (dissolved in PBS) was diluted with fresh medium at final concentration of 0.5 mg/mL, added to cell culture and incubated at 37 °C. After 4 h, the medium was removed and 100 μL of DMSO was added. After 1 h at room temperature, the purple formazan crystals were dissolved, and the plates were read in a microplate reader (Victor3™, Perkin Elmer, Waltham, MA, USA). Absorbance was measured at 595 nm. Cell growth inhibition rate was calculated as a percentage of treated cells on control ones.

Caco-2 cell line = experiment: cells; parameters: effect on cell growth, MTT: dose or concentration left out as unconfirmed; conditions: for IC50: Caco-2, MTT
Method: as §1, §2

SW-620 cell line = experiment: MTT cell viability assay, SW-620; conditions: for IC50: SW-620, MTT
Method: Briefly, cells were firstly seeded, in triplicate, into 96-well culture plates at 10^4 cells/well. […] The final concentration of ethanol in the cell medium was kept lower than 0.1%. Ethanol 0.1% was added to the control (untreated) cells.
as §2

NCM-460 cells [1] = experiment: Cell cycle analysis (propidium iodide, flow cytometry), NCM-460; assay type: cell-based, human; conditions: NCM-460, 72 h; 75 µM cinnamaldehyde, 800 µM eugenol; vs control
Method: (§3) Cell cycle analysis and apoptosis detection assay were only performed in cell treated with cinnamaldehyde and eugenol, at dosages that were not found toxic on the NCM-460 cell line. Briefly, 100,000 cells were seeded into 6-well cultured plates and allowed to attach for 24 h. After that, cells were treated for 72 h as previously described. Then, the cells were collected for the cell cycle analysis, washed twice with PBS, fixed with 70% ethanol, and incubated at −20 °C overnight. Then, the cells were washed with 500 µL of PBS, centrifuged at 1500 rpm for 5 min, resuspended in 500 μL of PBS containing 50 μg/mL RNase A and incubated for 30 min at room temperature. Cells were then centrifuged at 1500 rpm for 5 min, resuspended in PBS, and 10 µg/mL of Propidium iodide was added. Detection of apoptotic cells was performed with Annexin V/Propidium iodide detection kit, following the manufacturer’s instructions (Bender Medsystems, Wien, Austria). Cells were analyzed by flow cytometry (FACS) (Cytoflex, Beckman Coulter, CA, USA).

Caco-2 cells [2] = experiment: Cell cycle analysis (propidium iodide, flow cytometry), Caco-2; assay type: cell-based, human; conditions: Caco-2, 72 h; 75 µM cinnamaldehyde, 800 µM eugenol; vs control
Method: as §3

SW-620 cells [3] = experiment: Cell cycle analysis (propidium iodide, flow cytometry), SW-620; assay type: cell-based, human; conditions: SW-620, 72 h; 75 µM cinnamaldehyde, 800 µM eugenol; vs control
Method: as §3

Caco-2 cells [4] = experiment: in vitro; assay type: cell-based, human; conditions: for cell death, Annexin V/PI: Caco-2, 72 h, 800 µM eugenol, 75 µM cinnamaldehyde
Method: as §3

NCM-460 cells [5] = experiment: in vitro; assay type: cell-based, human; conditions: NCM-460, 72 h; 800 µM eugenol, 75 µM cinnamaldehyde
Method: as §3

SW-620 cells [6] = experiment: in vitro; assay type: cell-based, human; conditions: for Q2-UL cells (upper left quadrant, necrosis): SW620, 72 h, eugenol 800 µM (E800), cinnamaldehyde 75 µM (A75); for cell death, Annexin V/PI: SW-620, 72 h, 800 µM eugenol, 75 µM cinnamaldehyde
Method: as §3

in vitro = assay type: cell-based, human; conditions: human, eugenol 800 µM (E800), cinnamaldehyde 75 µM (A75), read-out: Q2-LL cells (lower left, viable, AnnexinV −/PI −)
Method: as §3

Caco-2 cells [7] = conditions: viability of Caco-2 cells; cited from earlier work
[8] = Homo sapiens, Caco-2, 24 h, 24 h
[9] = Homo sapiens, Caco-2, 72 h, 72 h
[10] = Homo sapiens, SW-620, 24 h, 24 h
[11] = Homo sapiens, SW-620, 72 h, 72 h
[12] = Caco2, 72 h, eugenol 800 µM (E800), cinnamaldehyde 75 µM (A75)

Row | SMILES | IC50 (Caco-2 cell line; 24 h) | IC50 (Caco-2 cell line; 72 h) | IC50 (Caco-2 cell line; [8]) | IC50 (Caco-2 cell line; [9]) | Selectivity Index (Caco-2 cell line; IC50 NCM460 / IC50 Caco2, 24 h) | Selectivity Index (Caco-2 cell line; IC50 NCM460 / IC50 Caco2, 72 h) | IC50 (SW-620 cell line; [10]) | IC50 (SW-620 cell line; [11]) | Selectivity Index (SW-620 cell line; IC50 NCM460 / IC50 SW620, 24 h) | Selectivity Index (SW-620 cell line; IC50 NCM460 / IC50 SW620, 72 h) | IC50 (SW-620 cell line; 24 h) | IC50 (SW-620 cell line; 72 h) | effect on cell cycle progression (NCM-460 cells [1]) | effect on cell cycle progression (Caco-2 cells [2]) | effect on cell cycle progression (SW-620 cells [3]) | cell death, Annexin V/PI (Caco-2 cells [4]) | cell death, Annexin V/PI (NCM-460 cells [5]) | Q2-UL cells (upper left quadrant, necrosis) (SW-620 cells [6]) | cell death, Annexin V/PI (SW-620 cells [6]) | concentration affecting cell viability (NCM-460 cell line) | other results
1 | O=C/C=C/c1ccccc1 [cinnamaldehyde] | 166 µM | 86.9 µM | 166 µM | 87 µM | 1.31 | 0.96 | 92 µM | 92 µM | 2.37 | 0.9 | 92 µM | 92.1 µM | did not find differences | reduction of G2 phase | G1 accumulation | both late apoptosis and necrosis were detected | did not induce | 15.98% | both late apoptosis and necrosis were detected |  | IC50 (NCM-460 cell line; Homo sapiens, NCM460, 24 h, NCM-460, MTT, 24 h): 218 µM; IC50 (NCM-460 cell line; Homo sapiens, NCM460, 72 h, NCM-460, MTT, 72 h): 83 µM; IC50 (NCM-460 cell line; NCM-460, MTT, 24 h): 218 µM; IC50 (NCM-460 cell line; NCM-460, MTT, 72 h): 83.2 µM; effect on viability, MTT (Caco-2 cell line; Caco-2, 75 (µg/mL in the source), 48 and 72 h): reduced viability; effect on viability, MTT (SW-620 cell line; SW-620, 75 (µg/mL in the source), any timepoint): reduced viability
2 | Cc1ccc(C(C)C)cc1O [carvacrol] |  |  |  |  |  |  |  |  |  |  |  |  |  |  |  |  |  |  |  | 500 µM | effect on viability, MTT (Caco-2 cell line; Caco-2, same range of concentrations used by Llana-Ruiz-Cabello and co-workers [19]): reduced Caco-2 cell viability; toxicity, MTT (SW-620 cell line; SW-620, 24 and 48 h, up to the maximum tested concentration of 750 μM): no toxicity; cytotoxic effect, MTT (SW-620 cell line; SW-620, 250, 500 and 750 µM, only after 72 h): modest statistically significant toxicity
3 | C=CCc1ccc(O)c(OC)c1 [eugenol] | 485 µM | 730 µM | 458 µM | 730 µM | 2.82 | 1.60 | 918 µM | 866 µM | 1.49 | 1.34 | 918 µM | 866 µM | did not find differences | reduction of G2 phase | G1 accumulation | both late apoptosis and necrosis were detected | did not induce | 17.12% | both late apoptosis and necrosis were detected |  | IC50 (NCM-460 cell line; Homo sapiens, NCM460, 24 h): 1370 µM; IC50 (NCM-460 cell line; Homo sapiens, NCM460, 72 h): 1160 µM; effect on cell proliferation, MTT (NCM-460 cell line; NCM-460, lower doses from 100 to 400 µM): seemed to stimulate; effect on cell proliferation, MTT (Caco-2 cell line; Caco-2, lower doses from 100 to 400 µM): seemed to stimulate; viability at 72 h (in vitro; Caco2, 72 h): 67.5%; viability at 72 h (in vitro; NCM460, 72 h): 95.4%; viability at 72 h (in vitro; SW620, 72 h): 81.3%; Q2-UL cells (upper left quadrant, necrosis) (Caco-2 cells [4]; [12]): 25.95%; Q2-UR cells (upper right quadrant, late apoptosis) (Caco-2 cells [4]; [12]): 5.55%
4 | Cc1ccc(C(C)C)c(O)c1 [thymol] |  |  |  |  |  |  |  |  |  |  |  |  |  |  |  |  |  |  |  | 165 µM | cytotoxic effect, MTT (SW-620 cell line; SW-620, 660 and 1320 µM): cytotoxic effect was also detectable; toxic concentration (SW-620 cell line; SW-620, after 24 h): 660 µM; IC50 (Caco-2 cells [7]): 700 µM
5 | C=C1CC/C=C(\C)CC[C@@H]2[C@@H]1CC2(C)C [β-caryophyllene] |  |  |  |  |  |  |  |  |  |  |  |  |  |  |  |  |  |  |  |  | effect on viability, MTT (NCM-460 cell line; NCM-460, 240 and 360 µM at 24 h and 120–260 µM at 72 h): affected the viability; effect on cell growth, MTT (Caco-2 cell line; Caco-2): increased cell growth; effect on viability, MTT (SW-620 cell line; SW-620, 260 µM at 24, 48 and 72 h): affected the viability
6 | CC(C)=CCC/C(C)=C/CO [Geraniol] |  |  |  |  |  |  |  |  |  |  |  |  |  |  |  |  |  |  |  |  | effect on cell proliferation, MTT (NCM-460 cell line; NCM-460, 100–800 µM, 48–72 h): increase cell proliferation; effect on cell proliferation, MTT (Caco-2 cell line; Caco-2, 100–800 µM, 72 h): increase cell proliferation; cytotoxic effect, MTT (Caco-2 cell line; human, 72 h, 1000 µM): not on the Caco-2 cells

From PMC7914775, “Molecules Present in Plant Essential Oils for Prevention and Treatment of Colorectal Cancer (CRC)” (Molecules, 2021)
